In publication PMC9866541, “Flavonoid Derivatives as New Potent Inhibitors of Cysteine Proteases: An Important Step toward the Design of New Compounds for the Treatment of Leishmaniasis” (Microorganisms, 2023):

Columns and labels:
[1] = target: T1, rCPB2.8 (Leishmania mexicana, UniProt P36400); assay: Determination of IC50 on rCPB2.8 (Z-FR-AMC); type: biochemical
T1 construct: recombinant enzymes (r) lacking the C-terminal region
Method: Cysteine proteases rCPB2.8, rCPB3, and rH84Y were assayed in 100 mM sodium acetate buffer containing 5 mM EDTA, 100 mM NaCl, 0.01% Triton X-100, and 20% glycerol, at pH 5.5. The enzymes were pre-incubated in the presence of 5 mM DTT for 5 min at 37 °C in a 1 mL final volume with constant stirring. Enzyme activities were monitored using fluorogenic probe Z-FR-AMC (9.25 µM final concentration), and the fluorescence was monitored by spectrofluorometry using fluorometer F2700 (Hitachi, Tokyo, Japan) set to λEx = 360 nm and λEm = 480 nm. The IC50 evaluation was performed using a progressive increase in the concentration of the compounds; the IC50 values were calculated using nonlinear regression, and the data were analysed by Grafit 5.0.13 software using Equation (1). (1) y=100%/1+(x/IC50)^S.

[2] = test system: Promastigote forms of L. amazonensis; assay: Antipromastigote assay (MTT); type: cell-based, Leishmania amazonensis; conditions: for SI (selectivity index): GL50 in NIH/3T3 cells / IC50 in extracellular promastigotes; for IC50: Leishmania amazonensis, L. amazonensis promastigotes, 72 h, 26 °C, MTT, highest concentration tested 10 µg/mL, read-out: Promastigote IC50
Method: A standard strain of Leishmania (Leishmania amazonensis) (IFLA/BR/1967/PH8) was used for the evaluation of in vitro antileishmanial activity. The promastigote forms were grown in Schneider’s insect medium (Sigma-Aldrich®, SP/Brazil) supplemented with 20% foetal bovine serum (Sigma-Aldrich®, SP/Brazil), 10,000 U/mL penicillin, and 10 mg/mL streptomycin (Sigma-Aldrich®, SP/Brazil).
Promastigote forms of L. amazonensis in the log growth phase (10^e6 parasites/mL) were added to 96-well plates and incubated in sextuplicate with the test samples (0.25–10.0 µg/mL). The microplates were incubated at 26 °C for 72 h. Cell viability was assessed by adding 5 mg/mL of MTT ([3-(4,5-dimethylthiazol-2-yl)-2,5-diphenyltetrazolium bromide] (Sigma-Aldrich® SP/Brazil). Results were expressed as the half-maximal inhibitory concentration (IC50) calculated by a nonlinear dose–response regression curve using the statistical program GraphPad PRISM 5.0. Pentamidine (Sigma-Aldrich ® SP/Brazil; 0.25–10 µg/mL) was used as a positive control, and pure Schneider culture medium was used as a negative control.

[3] = test system: NIH/3T3 fibroblasts; assay: Cytotoxicity on mammalian cells (sulphorhodamine B); type: cell-based; conditions: for NIH/3T3 Cells GL50: 48 h, concentration that inhibited cell growth by 50%
Method: The cytotoxic effect of the test samples was evaluated on NIH/3T3 fibroblasts, obtained from the Rio de Janeiro Cell Bank (Brazil). Cells were seeded in 96-well plates ([…]). After 24 h of fixation, cells were incubated for 48 h with test samples at 0.25–250 µg/mL, in triplicate. […] Doxorubicin (0.025–25 µg/mL was used as a positive control. Cells were fixed by adding 20% trichloroacetic acid and were subsequently stained with sulphorhodamine B (0.1%) diluted in acetic acid after 48 h of exposure. Absorbance values were read on the PT-READER microplate instrument (Thermoplate®), and growth percentages were calculated according to procedures in the literature. Cytotoxicity activity was expressed as the concentration of drug that inhibited cell growth by 50% (GL50), and growth was determined by nonlinear regression using Origin 6.0 software (OriginLab). The statistical significance was analysed using an unpaired Student’s t-test or a one-way analysis of variance. A p-value < 0.05 was considered statistically relevant. In addition, the SI was calculated using the ratio between cytotoxicity in NHI-3T3 cells (GL50) and activity in the parasite forms (IC50).

[4] = target: rH84Y (Leishmania mexicana, UniProt P36400, D186N/D189S/H209Y/N185D, form not given); assay: Enzyme kinetics and mechanism of inhibition of rH84Y; type: biochemical; conditions: for α: factor of formation of the ESI complex; as to mechanism: key: NCPC: non-competitive inhibition with positive cooperativity; SLNC: simple linear non-competitive inhibition
Sequence of rH84Y (P36400 126-343 D186N/D189S/H209Y/N185D): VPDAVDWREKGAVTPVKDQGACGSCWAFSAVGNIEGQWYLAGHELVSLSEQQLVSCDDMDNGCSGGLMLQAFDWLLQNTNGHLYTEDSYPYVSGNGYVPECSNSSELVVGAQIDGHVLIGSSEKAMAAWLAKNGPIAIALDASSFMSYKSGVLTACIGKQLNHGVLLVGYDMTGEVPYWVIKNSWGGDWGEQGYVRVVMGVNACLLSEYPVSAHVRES
Method: (§1) Studies of cysteine proteases rCPB2.8, rCPB3, and rH84Y inhibition kinetics were performed in different concentrations of Z-FR-AMC in the presence and absence of compounds using 100 mM sodium acetate buffer containing 5 mM EDTA, 100 mM NaCl, 0.01% Triton X-100, and 20% glycerol, at pH 5.5. Aliquots of the enzymes were pre-incubated with 5 mM DTT for 5 min at 37 °C. For every kinetic measurement, the compounds were pre-incubated with each enzyme for 10 min before adding the substrate. All kinetic assays were performed in duplicate. Inhibition constants were determined using different equations, depending on the inhibition mechanism. The assumed KM values of rCPB2.8, rCPB3, and rH84Y for Z-FR-AMC were 3.23 µM, 2.99 µM, and 2.80 µM, respectively. The data of the activity rate and substrate concentration generated rectangular hyperbolic profiles that were linearised using the Lineweaver–Burk double-reciprocal plot. The replot profiles of the slope vs. inhibitor and intercept vs. inhibitor provided Ki and αKi parameters, respectively. If the replots present a parabolic profile, the system involves the participation of a second molecule of the compound, which can bind the enzyme complexed to the first compound (EI), forming IEI, and bind to the ESI complex, forming IESI. Linearisation is required, generating the 1/Kslope vs. inhibitor and 1/Kintercept vs. inhibitor replots, according to Equations (2) and (3). (2) 1/Kslope=1/Ki+[I]/βKi2, (3) 1/Kintercept=1/αKi+[I]/αγKi2, where Ki is the inhibitory constant, [I] is the concentration of inhibitor, α is the factor of formation of the ESI complex (enzyme–substrate–inhibitor complex), β is the factor of formation of the IEI complex (inhibitor–enzyme–inhibitor complex), and γ is the factor of formation of the IESI complex (inhibitor–enzyme–substrate–inhibitor complex) according to the general mechanism (Figure 8). Furthermore, β and γ measure the cooperativity between the binding of the first and second inhibitor molecules to form IEI and IESI, respectively.

[5] = target: T1, rCPB2.8; assay: Enzyme kinetics and mechanism of inhibition of rCPB2.8; type: biochemical; conditions: for α: factor of formation of the ESI complex; for β: factor of formation of the IEI complex; for γ: factor of formation of the IESI complex; as to mechanism: key: NCPC: non-competitive inhibition with positive cooperativity; SLNC: simple linear non-competitive inhibition
Method: as §1

[6] = target: rCPB3 (Leishmania mexicana, UniProt P36400, D186N/D189S/N185D, form not given); assay: Enzyme kinetics and mechanism of inhibition of rCPB3; type: biochemical; conditions: for α: factor of formation of the ESI complex; as to mechanism: key: NCPC: non-competitive inhibition with positive cooperativity; SLNC: simple linear non-competitive inhibition
Sequence of rCPB3 (P36400 126-343 D186N/D189S/N185D): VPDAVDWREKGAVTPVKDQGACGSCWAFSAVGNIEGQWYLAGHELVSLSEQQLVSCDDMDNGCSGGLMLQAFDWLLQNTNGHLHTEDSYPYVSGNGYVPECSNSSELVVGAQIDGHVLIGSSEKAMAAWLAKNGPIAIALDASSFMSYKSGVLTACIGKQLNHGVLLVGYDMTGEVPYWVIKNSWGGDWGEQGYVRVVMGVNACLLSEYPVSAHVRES
Method: as §1

[7] = factor of formation of the IEI complex
[8] = factor of formation of the IESI complex

T1 sequence (P36400 126-343): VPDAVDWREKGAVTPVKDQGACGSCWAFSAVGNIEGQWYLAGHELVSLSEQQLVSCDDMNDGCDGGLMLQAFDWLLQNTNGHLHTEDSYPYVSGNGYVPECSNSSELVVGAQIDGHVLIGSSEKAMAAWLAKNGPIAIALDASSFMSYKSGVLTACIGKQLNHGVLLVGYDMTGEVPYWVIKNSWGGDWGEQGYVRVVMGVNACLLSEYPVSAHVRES

O=C(/C=C/c1ccc2c(c1)OCO2)c1cc(Cl)ccc1O [Compound 3b, (E)-3-(benzo[d][1, 3]dioxol-5-yl)-1-(5-chloro-2-hydroxyphenyl)prop-2-en-1-one]
IC50 [1]: 18400 ± 1220 nM | SI (selectivity index) [2]: 61.59 | IC50 [2]: 960 nM | NIH/3T3 Cells GL50 [3]: 59.13 µM

COc1ccc(-c2oc3ccccc3c(=O)c2O)cc1 [f12a, 3-hydroxy-2-(4-methoxyphenyl)-4H-chromen-4-one]
Mechanism [4]: SLNC | αKi [4]: 11.2 ± 0.5 µM | α [4]: 1 | IC50 [1]: 4720 ± 380 nM | Formation of IESI favoured by binding of the first molecule [5]: 50 fold | Mechanism [5]: NCPC | αKi [5]: 10.7 ± 1.1 µM | Ki ([5]; Ki): 12400 ± 1400 nM | α [5]: 1 | β [5]: 0.29 | γ [5]: 0.02 | Ki ([5]; βKi): 3650 ± 390 nM | Ki ([5]; γKi): 250 ± 30 nM | IC50 [2]: > 10 µg/mL | NIH/3T3 Cells GL50 [3]: >931.93 µM | Mechanism [6]: SLNC | αKi [6]: 7.50 ± 0.66 µM | α [6]: 1

O=C(/C=C/c1ccc2c(c1)OCO2)c1ccccc1O [Compound 2b, (E)-3-(benzo[d][1, 3]dioxol-5-yl)-1-(2-hydroxyphenyl)prop-2-en-1-one]
IC50 [1]: 20600 ± 1060 nM | Times less efficient in inhibiting rCPB2.8 than compound 2a ([1]; ratio of IC50 values): 8.78 times | IC50 [2]: > 10 µg/mL | NIH/3T3 Cells GL50 [3]: 910.58 µM

C[C@@H]1[C@H](O)[C@@H](C)/C=C/C=C/C=C/C=C/C=C/C=C/C=C/[C@H](O[C@@H]2O[C@H](C)[C@@H](O)[C@H](N)[C@@H]2O)C[C@@H]2O[C@](O)(C[C@@H](O)C[C@@H](O)[C@H](O)CC[C@@H](O)C[C@@H](O)CC(=O)O[C@H]1C)C[C@H](O)[C@H]2C(=O)O [Amphotericin B, reference compound]
IC50 [2]: 100 nM

CN(C)c1ccc(-c2oc3ccccc3c(=O)c2O)cc1 [f12c, 2-(4-(dimethylamino)phenyl)-3-hydroxy-4H-chromen-4-one]
IC50 [1]: 10300 ± 390 nM | SI (selectivity index) [2]: 1039.90 | IC50 [2]: 730 nM | NIH/3T3 Cells GL50 [3]: 759.13 µM

N=C(N)c1ccc(OCCCCCOc2ccc(C(=N)N)cc2)cc1 [Pentamidine, reference compound]
IC50 [2]: 800 nM

CN(C)c1ccc(-c2oc3ccc(Cl)cc3c(=O)c2O)cc1 [f13c, 6-chloro-2-(4-(dimethylamino)phenyl)-3-hydroxy-4H-chromen-4-one]
IC50 [1]: 14200 ± 650 nM | IC50 [2]: > 10 µg/mL | NIH/3T3 Cells GL50 [3]: >791.76 µM

COc1ccc(/C=C/C(=O)c2cc(F)ccc2O)cc1 [Compound 4a, (E)-1-(5-fluoro-2-hydroxyphenyl)-3-(4-methoxyphenyl)prop-2-en-1-one]
IC50 [1]: 3350 ± 170 nM | IC50 [2]: > 10 µg/mL | NIH/3T3 Cells GL50 [3]: 901.09 µM

COc1ccc(/C=C/C(=O)c2cc(Cl)ccc2O)cc1 [Compound 3a, (E)-1-(5-chloro-2-hydroxyphenyl)-3-(4-methoxyphenyl)prop-2-en-1-one]
IC50 [1]: 7110 ± 320 nM | SI (selectivity index) [2]: >1443.10 | IC50 [2]: 600 nM | NIH/3T3 Cells GL50 [3]: >865.86 µM | Cytotoxicity against mammal cells (in words) ([3]; NIH/3T3 cells): noncytotoxic

CN(C)c1ccc(/C=C/C(=O)c2cc(Cl)ccc2O)cc1 [Compound 3c, (E)-1-(5-chloro-2-hydroxyphenyl)-3-(4-(dimethylamino)phenyl)prop-2-en-1-one]
Formation of IEI favoured by binding of the first molecule [4]: 20 fold | Formation of IESI favoured by binding of the first molecule [4]: 28 fold | Mechanism [4]: NCPC | αKi [4]: 127 ± 20 µM | α [4]: 4.31 | β [4, 7]: 0.049 | γ [4, 8]: 0.036 | IC50 [1]: 3970 ± 80 nM | Formation of IEI favoured by binding of the first molecule [5]: 182 fold | Formation of IESI favoured by binding of the first molecule [5]: 87 fold | Mechanism [5]: NCPC | αKi [5]: 147 ± 28 µM | Ki ([5]; Ki): 100000 ± 18000 nM | α [5]: 1.47 | β [5]: 0.0055 | γ [5]: 0.0115 | Ki ([5]; βKi): 550 ± 100 nM | Ki ([5]; γKi): 1150 ± 210 nM | IC50 [2]: > 10 µg/mL | NIH/3T3 Cells GL50 [3]: >828.44 µM | Formation of IEI favoured by binding of the first molecule [6]: sevenfold | Formation of IESI favoured by binding of the first molecule [6]: 20 fold | Mechanism [6]: NCPC | αKi [6]: 141 ± 27 µM | α [6]: 9.15 | β [6, 7]: 0.14 | γ [6, 8]: 0.05

O=C(/C=C/c1ccc2c(c1)OCO2)c1cc(F)ccc1O [Compound 4b, (E)-3-(benzo[d][1, 3]dioxol-5-yl)-1-(5-fluoro-2-hydroxyphenyl)prop-2-en-1-one]
IC50 [1]: 6610 ± 410 nM | IC50 [2]: 1950 nM | NIH/3T3 Cells GL50 [3]: >873.36 µM

COc1cccc2c1C(=O)c1c(O)c3c(c(O)c1C2=O)C[C@@](O)(C(=O)CO)C[C@@H]3O[C@H]1C[C@H](N)[C@H](O)[C@H](C)O1 [Doxorubicin, reference compound]
NIH/3T3 Cells GL50 [3]: 0.05 µM

O=C(/C=C/c1ccc2c(c1)OCO2)c1ccc(Cl)cc1 [Compound 1b, (E)-3-(benzo[d][1, 3]dioxol-5-yl)-1-(4-chlorophenyl)prop-2-en-1-one]
IC50 [1]: 7420 ± 250 nM | IC50 [2]: > 10 µg/mL | NIH/3T3 Cells GL50 [3]: 811.27 µM

COc1ccc(-c2oc3ccc(Cl)cc3c(=O)c2O)cc1 [f13a, 6-chloro-3-hydroxy-2-(4-methoxyphenyl)-4H-chromen-4-one]
IC50 [1]: 1880 ± 70 nM | SI (selectivity index) [2]: >764.70 | IC50 [2]: 1080 nM | NIH/3T3 Cells GL50 [3]: >825.87 µM

COc1ccc(/C=C/C(=O)c2ccccc2O)cc1 [Compound 2a, (E)-1-(2-hydroxyphenyl)-3-(4-methoxyphenyl)prop-2-en-1-one]
IC50 [1]: 2350 ± 190 nM | SI (selectivity index) [2]: 1324 | IC50 [2]: 710 nM | NIH/3T3 Cells GL50 [3]: 940.14 µM
